The results in this text go back to publication PMC8305571 (2021).

Each structure is given as a SMILES string.

Experiment [1] has as its system Scle (DNA, G4) TGGGGGGGTGGGTGGGT
The experiment can be described thus: CD melting, 264 nm. The note with it: 50 mM KCl; mBR buffer, pH 7.0; derived from two Tm (81.5, >100); indicative values.

Experiment [2] has as its system HTR (DNA, G4) GGGTTAGGGTTAGGGTTAGGG
The experiment is described as follows: CD melting, 294 nm. The note with it: 50 mM KCl; mBR buffer, pH 7.0; derived from two Tm (63.5, 64.0); indicative values.

The subject of experiment [3] is TBA (DNA, G4) GGTTGGTGTGGTTGG
The experiment can be described thus: CD melting, 294 nm. The following applies: 50 mM KCl; mBR buffer, pH 7.0; derived from two Tm (46.5, 48.5); indicative values.

The test system of experiment [4] is Hema (DNA, G4) GGGGTCGGGCGGGCCGGGTG
The experiment can be described thus: CD melting, 264 nm. The note with it: 50 mM KCl; mBR buffer, pH 7.0; derived from two Tm (72.0, 86.0); indicative values.

Experiment [5] has as its system STAT (DNA, G4) GGGCGGGCGGGCGGG
The experiment is described as follows: CD melting, 264 nm. The note with it: mBR buffer, pH 7.0, indicative values.

Experiment [6] concerns ionK (DNA, G4) GGGTTAGGGTTAGGGTAGGG
The experiment can be described thus: CD melting, 294 nm. The following applies: 50 mM KCl; mBR buffer, pH 7.0; derived from two Tm (59.1, 58.0); indicative values.

Experiment [7] relates to VEGF (DNA, G4) GGGGCGGGCCGGGGGCGGG
The experiment can be described thus: CD melting, 264 nm. The following applies: mBR buffer, pH 7.0, indicative values.

Experiment [8] has as its system TFO1 (DNA, triplex) AAAAAAAACCCCTTTTTTTTCCCCTTTTTTTT
The experiment is described as follows: CD melting, 282 nm. The following applies: no added salt; mBR buffer, pH 7.0; derived from two Tm (20.4, 17.7); indicative values.

The subject of experiment [9] is G3A (DNA, G4) GGGAGGGAGGGAGGGA
The experiment can be described thus: CD titration, PAGE. The note with it: 50 mM NaCl or KCl; mBR buffer, pH 7.0; up to 260 µM RhG (CD), 130 µM (PAGE).

The test system of experiment [10] is G3C (DNA, G4) GGGCGGGCGGGCGGGC
The experiment is described as follows: CD titration, PAGE. The following applies: 50 mM NaCl or KCl; mBR buffer, pH 7.0; up to 260 µM RhG (CD), 130 µM (PAGE).

For experiment [11], the system named is HTR (DNA, G4) GGGTTAGGGTTAGGGTTAGGG
The experiment can be described thus: CD melting, 294 nm. The following applies: 50 mM NaCl; 25 mM mBR buffer, pH 7.0; ligand concentration not given; indicative value.

The subject of experiment [12] is Scle (DNA, G4) TGGGGGGGTGGGTGGGT
The experiment can be described thus: CD melting, 264 nm. The following applies: 50 mM NaCl; 25 mM mBR buffer, pH 7.0; ligand concentration not given; indicative value.

Experiment [13] deals with TBA (DNA, G4) GGTTGGTGTGGTTGG
The experiment can be described thus: CD melting, 294 nm. The note with it: 50 mM NaCl; 25 mM mBR buffer, pH 7.0; ligand concentration not given; indicative value.

In experiment [14] the test system is Hema (DNA, G4) GGGGTCGGGCGGGCCGGGTG
The experiment is described as follows: CD melting, 264 nm. The following applies: 50 mM NaCl; 25 mM mBR buffer, pH 7.0; ligand concentration not given; indicative value.

Experiment [15] deals with ionK (DNA, G4) GGGTTAGGGTTAGGGTAGGG
The experiment is described as follows: CD melting, 294 nm. The following applies: 50 mM NaCl; 25 mM mBR buffer, pH 7.0; ligand concentration not given; indicative value.

Experiment [16] concerns Scle (DNA, G4) TGGGGGGGTGGGTGGGT
The experiment is described as follows: induced CD and UV-Vis titration. The following applies: 50 mM KCl; mRB buffer, pH 7.0; 130 µM RhG, DNA up to 27 µM.

For experiment [17], the system named is HTR (DNA, G4) GGGTTAGGGTTAGGGTTAGGG
The experiment can be described thus: temperature gradient gel electrophoresis (TGGE). The following applies: 2.5 mM KCl; 25 mM mBR buffer, pH 7.0; 260 µM RhG in gel; antiparallel form; parallel form >62 ± 2 °C with RhG.

As for `CCN=c1cc2oc3cc(NCC)c(C)cc3c(-c3ccccc3C(=O)OCC)c-2cc1C`, the “ΔTm (Tm shift)” value in experiment [1] was greater than 18.5 °C; in [2] it was 0.5 °C; in experiment [3] it was 2.0 °C; in experiment [4] it was 14.0 °C; in [8], -2.7 °C. For the same compound, the “ΔTm (RhG minus no ligand)” value in experiment [5] (50 mM KCl, derived from two Tm (92.8, >100)) is greater than 7.2 °C; in experiment [5] (50 mM NaCl, derived from two Tm (54.5, 76.5)), 22.0 °C; in experiment [6], -1.1 °C; in [7] (50 mM KCl, derived from two Tm (85.6, 87.9)), 2.3 °C; in [7] (50 mM NaCl, derived from two Tm (47.5, 82.0)), 34.5 °C. In addition, the binding result in experiment [9], in experiment [10] and in [16] was “yes” each time. Also, the Tm in [11] was 52.0 (no ligand 52.0) °C; in experiment [12] it was 77.0 (no ligand 62.0) °C; in experiment [13], 26.8 (no ligand 20.0) °C; in [14], 54.3 (no ligand ND) °C; in [15], 48.5 (no ligand 46.2) °C; in experiment [17], 50.6 (no ligand 46.5) °C.
